According to the supplement of paper PMC8372320:

Assay: photocatalytic hydrogen evolution rate (per 5 mg catalyst); higher = more photocatalytic H2 evolution; extreme values may be limits of the assay
Conditions: catalyst mass (mg): 5; Pt cocatalyst (wt%): 3; sacrificial medium: triethylamine/methanol/water 1:1:1
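Also: aromatic molecules in triethylamine/methanol/water with Pt photoreduced in situ, irradiated 3 h under a 1 sun AM 1.5G solar simulator (350–1000 nm), H2 quantified by headspace gas chromatography; listed molecule itself used as the photocatalyst at 5 mg per vial.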

`Fc1cc(Br)c(F)cc1Br` and `Nc1cc(Br)c(F)cc1Br` are the same in “photocatalytic hydrogen evolution rate” value: 0 µmol/h for the first, 0 µmol/h for the second.

Compared with `CC(=O)c1ccc(C#N)cc1`, `N#Cc1ccc(N)cc1` is lower in “photocatalytic hydrogen evolution rate” value: 5.7 µmol/h for the first, 0 µmol/h for the second.

Going from `CN(C)c1ccc(C=O)cc1` to `O=Cc1ccc(Cl)cc1`, the “photocatalytic hydrogen evolution rate” value rises from 0.34 µmol/h to 0.964 µmol/h.

Going from `Oc1c(Br)cc(Br)cc1Br` to `Nc1ccc(Br)cc1Br`, the “photocatalytic hydrogen evolution rate” value falls from 0.0139 µmol/h to 0 µmol/h.

`N#Cc1cc(Br)c(N)c(Br)c1` and `N#Cc1cc(N)cc(F)c1` are the same in “photocatalytic hydrogen evolution rate” value: 0 µmol/h for the first, 0 µmol/h for the second.

`O=C1CCC(c2ccccc2)CC1` and `O=C(O)C1CCN(C(=O)c2ccccc2)CC1` are the same in “photocatalytic hydrogen evolution rate” value: 0 µmol/h for the first, 0 µmol/h for the second.

`Fc1cc(Br)ccc1Br` and `O=C(O)c1cc(Br)ccc1Br` are the same in “photocatalytic hydrogen evolution rate” value: 0 µmol/h for the first, 0 µmol/h for the second.

Going from `CN1CCN(c2ccc(C=O)cc2)CC1` to `O=Cc1ccc(Br)cc1`, the “photocatalytic hydrogen evolution rate” value rises from 0.409 µmol/h to 0.624 µmol/h.

Compared with `Nc1nc(Br)cnc1Br`, `COC(=O)c1nc(N)c(Br)cc1Br` is lower in “photocatalytic hydrogen evolution rate” value: 0.0666 µmol/h for the first, 0 µmol/h for the second.

`Brc1ccc(C#CC#Cc2ccc(Br)cc2)cc1` and `Brc1ccc(C#Cc2ccc(Br)cc2)cc1` are the same in “photocatalytic hydrogen evolution rate” value: 0 µmol/h for the first, 0 µmol/h for the second.

`Brc1cncc(Br)c1` and `O=C(O)Cc1ccc(Br)cc1Br` are the same in “photocatalytic hydrogen evolution rate” value: 0 µmol/h for the first, 0 µmol/h for the second.

First: N#CCc1nc2ccccc2s1
Second: N#Cc1c2ccccc2cc2ccccc12
The “photocatalytic hydrogen evolution rate” value of the first is lower: 0 µmol/h for the first, 0.294 µmol/h for the second.

Compared with `CC(C)(C)c1cc2ccc3c(Br)cc(Br)c4ccc(c1)c2c34`, `Oc1ccc2cc(Br)ccc2c1-c1c(O)ccc2cc(Br)ccc12` is lower in “photocatalytic hydrogen evolution rate” value: 0.121 µmol/h for the first, 0 µmol/h for the second.

Going from `Cc1ccc(C(=O)c2ccccc2)cc1` to `O=C(/C=C/c1ccccc1)c1ccccc1`, the “photocatalytic hydrogen evolution rate” value falls from 3.44 µmol/h to 0.146 µmol/h.

`CC(C)c1cc(C(C)C)c(-c2ccccc2P(C(C)(C)C)C(C)(C)C)c(C(C)C)c1` and `O=C1C=CC(=O)c2cc3ccccc3cc21` are the same in “photocatalytic hydrogen evolution rate” value: 0 µmol/h for the first, 0 µmol/h for the second.

Going from `O=Cc1ccc(Br)nc1` to `O=Cc1ccc(F)c(O)c1`, the “photocatalytic hydrogen evolution rate” value falls from 0.297 µmol/h to 0.000356 µmol/h.

Compared with `c1ccc(C(c2ccccc2)c2ccccc2)cc1`, `O=Cc1ccc(N(c2ccccc2)c2ccccc2)cc1` is higher in “photocatalytic hydrogen evolution rate” value: 0 µmol/h for the first, 0.317 µmol/h for the second.

Compared with `O=Cc1ccc2c(c1)c1ccccc1n2-c1ccccc1`, `O=Cc1ccc(S(=O)(=O)c2ccccc2)cc1` is lower in “photocatalytic hydrogen evolution rate” value: 2.51 µmol/h for the first, 0.0425 µmol/h for the second.

First: COc1cc(Br)cc(OC)c1
Second: COc1ccc(OC)cc1
The “photocatalytic hydrogen evolution rate” value of the first is higher: 0.0348 µmol/h for the first, 0 µmol/h for the second.

Compared with `Brc1ccc(C(c2ccc(Br)cc2)(c2ccc(Br)cc2)c2ccc(Br)cc2)cc1`, `Nc1ccc(C(c2ccc(N)cc2)(c2ccc(N)cc2)c2ccc(N)cc2)cc1` is lower in “photocatalytic hydrogen evolution rate” value: 0.0679 µmol/h for the first, 0 µmol/h for the second.

Going from `Oc1cc2c3cc(O)c(O)cc3c3cc(O)c(O)cc3c2cc1O` to `O=C1c2c(O)cccc2Cc2cccc(O)c21`, the “photocatalytic hydrogen evolution rate” value falls from 0.155 µmol/h to 0 µmol/h.

`N#Cc1cc(F)cc(F)c1` and `Cc1cc(C#N)ccc1C#N` are the same in “photocatalytic hydrogen evolution rate” value: 0 µmol/h for the first, 0 µmol/h for the second.

`O=[N+]([O-])c1cc([N+](=O)[O-])c(F)cc1F` and `Nc1ccc(-c2ccc(N)c(F)c2)cc1F` are the same in “photocatalytic hydrogen evolution rate” value: 0 µmol/h for the first, 0 µmol/h for the second.

`c1ccc2c(c1)-c1ccccc1C21c2ccccc2-c2ccccc21` and `c1ccc(-c2ccc(-c3ccc(-c4ccccc4)cc3)cc2)cc1` are the same in “photocatalytic hydrogen evolution rate” value: 0 µmol/h for the first, 0 µmol/h for the second.

Going from `O=C(O)c1ccc(-c2cc(-c3ccc(C(=O)O)cc3)cc(-c3ccc(C(=O)O)cc3)c2)cc1` to `O=C(O)c1ccc(-c2nc(-c3ccc(C(=O)O)cc3)nc(-c3ccc(C(=O)O)cc3)n2)cc1`, the “photocatalytic hydrogen evolution rate” value rises from 0.00212 µmol/h to 0.201 µmol/h.

First: N#Cc1c(-n2c3ccccc3c3ccccc32)c(C#N)c(-n2c3ccccc3c3ccccc32)c(-n2c3ccccc3c3ccccc32)c1-n1c2ccccc2c2ccccc21
Second: O=C(O)c1ccc(-c2cc(-c3ccc(C(=O)O)cc3)c(-c3ccc(C(=O)O)cc3)cc2-c2ccc(C(=O)O)cc2)cc1
The “photocatalytic hydrogen evolution rate” value of the first is higher: 20.5 µmol/h for the first, 0.052 µmol/h for the second.

`Brc1ccccc1-c1ccccc1Br` and `c1ccc2ccccc2c1` are the same in “photocatalytic hydrogen evolution rate” value: 0 µmol/h for the first, 0 µmol/h for the second.

First: O=C1OC(=O)c2ccc3c4ccc5c6c(ccc(c7ccc1c2c73)c64)C(=O)OC5=O
Second: O=C1c2ccc(O)cc2C(=O)c2ccc(O)cc21
The “photocatalytic hydrogen evolution rate” value of the first is lower: 0 µmol/h for the first, 2.69 µmol/h for the second.

`c1ccc2c(c1)Nc1ccccc1O2` and `c1ccc(N=Nc2ccccc2)cc1` are the same in “photocatalytic hydrogen evolution rate” value: 0 µmol/h for the first, 0 µmol/h for the second.

Compared with `COc1cc(C=O)ccc1O`, `Cc1cc(C=O)ccc1O` is lower in “photocatalytic hydrogen evolution rate” value: 0.0183 µmol/h for the first, 0.0172 µmol/h for the second.

`Cc1c(O)cccc1O` and `N#Cc1c(O)ccc(O)c1C#N` are the same in “photocatalytic hydrogen evolution rate” value: 0 µmol/h for the first, 0 µmol/h for the second.

`Brc1ccc2c(c1)oc1cc(Br)ccc12` and `Brc1ccc(-c2ccc(Br)cc2)cc1` are the same in “photocatalytic hydrogen evolution rate” value: 0 µmol/h for the first, 0 µmol/h for the second.

Compared with `O=C1C=CC(=O)N1c1ccccc1`, `O=Cc1ccc(-c2ccccn2)cc1` is higher in “photocatalytic hydrogen evolution rate” value: 0 µmol/h for the first, 5.1 µmol/h for the second.

Compared with `COC(OC)(C(=O)c1ccccc1)c1ccccc1`, `C(=C\c1ccccc1)/c1ccccc1` is lower in “photocatalytic hydrogen evolution rate” value: 1.18 µmol/h for the first, 0 µmol/h for the second.

`Oc1c(Br)c(O)c(Br)c(O)c1Br` and `O=C1C(Br)=C(Br)C(=O)C(Br)=C1Br` are the same in “photocatalytic hydrogen evolution rate” value: 0 µmol/h for the first, 0 µmol/h for the second.

`Nc1ccc(N)cc1` and `Nc1ccc(Br)cc1` are the same in “photocatalytic hydrogen evolution rate” value: 0 µmol/h for the first, 0 µmol/h for the second.

Compared with `COc1ccc(Nc2ccc(OC)cc2)cc1`, `COc1ccnc(-c2cc(OC)ccn2)c1` is higher in “photocatalytic hydrogen evolution rate” value: 0.055 µmol/h for the first, 0.169 µmol/h for the second.

First: O=Cc1ccc(C(=O)O)cc1
Second: Nc1cc(C(=O)O)ccc1C(=O)O
The “photocatalytic hydrogen evolution rate” value of the first is higher: 2.34 µmol/h for the first, 0.109 µmol/h for the second.

Going from `O=Cc1ccc(-c2ccc(-c3ccc(C=O)s3)s2)s1` to `O=Cc1ccc(-c2ccc(C=O)s2)s1`, the “photocatalytic hydrogen evolution rate” value falls from 1.6 µmol/h to 1.18 µmol/h.

Compared with `N#Cc1c(F)c(F)nc(F)c1F`, `N#Cc1ncccc1Br` is lower in “photocatalytic hydrogen evolution rate” value: 0.00201 µmol/h for the first, 0 µmol/h for the second.

First: Nc1ccc(-c2ccc(-c3ccc(N)cc3)cc2)cc1
Second: Brc1ccc(-c2nc(-c3ccc(Br)cc3)nc(-c3ccc(Br)cc3)n2)cc1
The “photocatalytic hydrogen evolution rate” value of the first is lower: 0 µmol/h for the first, 0.0311 µmol/h for the second.

`BrCc1ccc(-c2ccc(CBr)cc2)cc1` and `OB(O)c1ccc(-c2ccc(B(O)O)cc2)cc1` are the same in “photocatalytic hydrogen evolution rate” value: 0 µmol/h for the first, 0 µmol/h for the second.

Compared with `O=C1N=C(c2cccs2)c2c(O)[nH]c(-c3cccs3)c21`, `O=C1OC2(c3ccccc31)c1cc(I)c(O)c(I)c1Oc1c2cc(I)c(O)c1I` is higher in “photocatalytic hydrogen evolution rate” value: 0 µmol/h for the first, 28.3 µmol/h for the second.

Compared with `C#Cc1cc(C#C)cc(C#C)c1`, `Brc1ccc(Br)c2nccnc12` is higher in “photocatalytic hydrogen evolution rate” value: 0 µmol/h for the first, 1.37 µmol/h for the second.

First: CC1(C)OB(c2ccc(B3OC(C)(C)C(C)(C)O3)cc2)OC1(C)C
Second: CC1(C)OB(c2ccc3c4ccc(B5OC(C)(C)C(C)(C)O5)cc4n(-c4ccccc4)c3c2)OC1(C)C
The “photocatalytic hydrogen evolution rate” value of the first is lower: 0 µmol/h for the first, 0.0133 µmol/h for the second.

Compared with `O=Cc1ccc(O)c(Cl)c1`, `O=Cc1ccc(C=O)s1` is higher in “photocatalytic hydrogen evolution rate” value: 0.0661 µmol/h for the first, 0.129 µmol/h for the second.

`COC(=O)c1cc(Br)oc1Br` and `COc1cc(Br)c(OC)cc1Br` are the same in “photocatalytic hydrogen evolution rate” value: 0 µmol/h for the first, 0 µmol/h for the second.

Compared with `OC1(c2ccccc2)c2cc(Br)ccc2-c2ccc(Br)cc21`, `Cc1c2ccccc2c(C)c2ccccc12` is higher in “photocatalytic hydrogen evolution rate” value: 0.101 µmol/h for the first, 0.68 µmol/h for the second.

`Cc1c(CBr)c(C)c(CBr)c(C)c1CBr` and `Cc1c(C)c(Br)c(C)c(C)c1Br` are the same in “photocatalytic hydrogen evolution rate” value: 0 µmol/h for the first, 0 µmol/h for the second.

Going from `CCCCCCCCC1(CCCCCCCC)c2cc(B3OC(C)(C)C(C)(C)O3)ccc2-c2ccc(B3OC(C)(C)C(C)(C)O3)cc21` to `c1cc(-c2cn[nH]c2)ccc1-c1cn[nH]c1`, the “photocatalytic hydrogen evolution rate” value falls from 0.0342 µmol/h to 0 µmol/h.

In the case of `Clc1ccc2ccc(Cl)nc2n1`, the “photocatalytic hydrogen evolution rate” value is reported as 0.122 µmol/h.
